# In patent publication US20130210765A1, “HYALURONIC ACID CONTAINING PHARMACEUTICAL OR VETERINARY COMPOSITIONS” (priority 2004, published 2013):
# Tested on: lameness in horses
# Assay: double-blind placebo controlled crossover clinical trial on lameness in horses
# Format: in vivo
# Method: A crossover double blind and randomised study was designed to evaluate the efficacy of GLM lipid extract and HA alone and in combination in the treatment of lameness in horses.
# Qualifying horses were initially examined and randomly assigned to receive four capsules of the placebo, or containing 50 mg GLM, or 50 mg Hyaluronate, or a mixture of 50 mg GLM and 50 mg Hyaluronate daily. Randomisation was computer generated in balanced blocks of the four treatment regimes and was crossover in design. No other medications were administered.
# Evaluations of arthritic/musculoskeletal signs were carried out by a veterinarian and research assistant at wk 0 and every two weeks thereafter until the end of the trial. All parameters were scored on a scale of 1 to 10 according to severity and symptom improvement where 1 was severe disease symptomology and 10 indicated a disease free condition score and the results are shown in Table 1 and FIG. 4.
# Each horse was scored for mobility (average of individual scores for lameness in walking, trotting, turning and any other musculoskeletal abnormality). Individual joints (neck, back, carpus, elbow and shoulder or tarsus, stifle and hip) of each limb were individually scored for degree of pain, swelling, crepitus and reduction in range of movement. Horses were also filmed for gait analysis and scored. Summation of the mobility score and all individual joint scores for each horse comprised their total arthritic/musculoskeletal score.
substance,measurement,setting,value
Hyaluronic acid [Hyaluronate],"mean clinical lameness score, Mid Phase 14 Days","four capsules daily, 14 days, scale 1 (severe) to 10 (disease free), Mean ± SEM",2.6 ± 0.47^be
same,"mean clinical lameness score, End Phase 28 Days","four capsules daily, 28 days, scale 1 (severe) to 10 (disease free), Mean ± SEM",2.8 ± 0.48^ef
same,effect on degree of lameness / locomotory score (in words),within 2 weeks / 14 days of treatment,little influence on it own
